Earlier results, collected in patent US9272011B2, “Pharmaceutical composition for treating urinary incontinence and enuresis” (LABORATEC, S.L., priority 2012, dated 2016).

System: enuresis
Settings: enuresis therapy, literature studies

CN(C)CCCN1c2ccccc2CCc2ccccc21 [Imipramine]
response rate: approximately 50%
